Laboratory results reported in patent US9216971B2 (priority 2007, dated 2015).
Like-named read-outs stand apart in the source and are kept apart here.

How the values were obtained:
[1] = biological target: T1, hM3 muscarinic receptor subtype (Homo sapiens, UniProt P20309); assay: biochemical; assay type: binding
T1 construct: expressed in transfected cells; membranes prepared

hM2 receptor = biological target: T2, hM2 receptor (Homo sapiens, UniProt P08172); assay: Blockade of agonist-mediated inhibition of cAMP accumulation; assay type: cell-based; settings: CHO-K1 cells expressing the hM2 receptor; read-out: Ki for blockade of oxotremorine-inhibition of forskolin-mediated cAMP accumulation
T2 construct: expressed in transfected cells; host or cells: CHO-K1 cells
T2 sequence (P08172 1-466): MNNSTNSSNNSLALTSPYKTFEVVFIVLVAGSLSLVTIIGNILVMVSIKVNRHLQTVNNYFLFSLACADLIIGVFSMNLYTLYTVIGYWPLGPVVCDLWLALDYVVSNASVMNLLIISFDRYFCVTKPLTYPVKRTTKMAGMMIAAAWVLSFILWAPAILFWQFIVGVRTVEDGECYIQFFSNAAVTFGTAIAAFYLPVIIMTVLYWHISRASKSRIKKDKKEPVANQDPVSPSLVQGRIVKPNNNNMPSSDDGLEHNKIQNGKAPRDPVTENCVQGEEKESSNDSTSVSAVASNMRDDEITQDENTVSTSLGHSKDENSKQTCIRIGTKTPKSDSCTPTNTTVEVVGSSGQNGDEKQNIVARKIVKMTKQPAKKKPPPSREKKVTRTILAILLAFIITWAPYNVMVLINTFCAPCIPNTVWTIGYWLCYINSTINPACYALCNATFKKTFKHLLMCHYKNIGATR

MCh response = settings: rat
[2] = system: pilocarpine-induced salivation; assay: Rat antisialagogue assay; assay type: in vivo; settings: evaluated at 1, 6, and 24 hours post-dose
Procedure: Rats (Sprague-Dawley, male, 250-350 g) are dosed, anesthetized and cannulated as described for Assay 3. At predetermined time points and after surgery, animals are placed on their dorsal side at a 20° incline with their head in a downward slope. A pre-weighed gauze pad is inserted in the animal's mouth and the muscarinic agonist pilocarpine (PILO) (3 mg/kg, IV) is administered. Saliva produced during 10 minutes post-PILO is measured gravimetrically by determining the weight of the gauze pad before and after PILO. Antisialagogue effects are expressed as % inhibition of salivation relative to control animals.
The rat antisialagogue assay was developed to assess systemic exposure and calculate the lung selectivity index (LSI) of test compounds. The standard, tiotropium, was evaluated in this model at 1, 6, and 24 hours post-dose. […] This finding is consistent with the peak effects observed in the Einthoven assay.
This model is a modified version of the procedure described in Rechter, “Estimation of anticholinergic drug effects in mice by antagonism against pilocarpine-induced salivation” Ata Pharmacol Toxicol 24:243-254 (1996). The mean weight of saliva in vehicle-treated animals, at each pre-treatment time, is calculated and used to compute % inhibition of salivation, at the corresponding pre-treatment time, at each dose.

T1 sequence (P20309 whole entry): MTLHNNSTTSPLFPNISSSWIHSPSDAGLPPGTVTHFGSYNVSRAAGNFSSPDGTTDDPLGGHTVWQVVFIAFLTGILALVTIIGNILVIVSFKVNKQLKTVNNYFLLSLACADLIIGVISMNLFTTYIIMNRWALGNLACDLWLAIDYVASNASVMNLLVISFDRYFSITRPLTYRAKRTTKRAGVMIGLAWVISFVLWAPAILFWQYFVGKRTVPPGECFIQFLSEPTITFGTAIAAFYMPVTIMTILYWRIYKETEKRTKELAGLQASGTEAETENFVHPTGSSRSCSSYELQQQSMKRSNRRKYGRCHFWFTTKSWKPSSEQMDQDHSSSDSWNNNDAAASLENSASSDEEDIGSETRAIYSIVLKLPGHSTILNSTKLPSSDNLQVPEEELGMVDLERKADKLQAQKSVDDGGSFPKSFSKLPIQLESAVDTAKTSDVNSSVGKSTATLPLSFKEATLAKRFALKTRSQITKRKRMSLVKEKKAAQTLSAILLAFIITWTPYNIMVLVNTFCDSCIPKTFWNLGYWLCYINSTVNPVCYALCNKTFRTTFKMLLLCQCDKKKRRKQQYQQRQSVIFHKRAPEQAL

C[N+](C)(CCc1ccccc1)C1CCN(C(=O)[C@](O)(c2ccccc2)C2CCCC2)CC1 [Example 1, [1-((R)-2-cyclopentyl-2-hydroxy-2-phenylacetyl)piperidin-4-yl]dimethylphenethylammonium]
Ki [1]: < 1 nM

C[N+](C)(CCc1cccc(O)c1)C1CCN(C(=O)[C@](O)(c2ccccc2)C2CCCC2)CC1 [Example 2, [1-((R)-2-cyclopentyl-2-hydroxy-2-phenylacetyl)piperidin-4-yl][2-(3-hydroxyphenyl)ethyl]dimethylammonium]
Ki [1]: < 1 nM | Ki (hM2 receptor): < 1 nM

C[N+]1(C)CCC(OC(=O)C(O)(c2ccccc2)C2CCCC2)C1 (stereo not shown) [glycopyrrolate]
ID50 (bronchoprotective potency) (MCh response; inhalation, 1.5 hours post-dose): 15 µg/mL

CC(C)[N+]1(C)[C@@H]2CC[C@H]1C[C@@H](OC(=O)C(CO)c1ccccc1)C2 (stereo partly shown) [ipratropium]
ID50 (bronchoprotective potency) (MCh response; in vivo): 4.4 µg/mL | fold less potent 6-hours post-dose compared to 1.5 hour potency (MCh response; in vivo): about 3 fold

C[N+]1(C)[C@@H]2C[C@@H](OC(=O)C(O)(c3cccs3)c3cccs3)C[C@H]1[C@@H]1O[C@@H]12 [tiotropium]
ID50 (bronchoprotective potency) (MCh response; in vivo): 6 µg/mL | fold more potent at 6 hour and 24 hour compared to 1.5 hour potency (MCh response; in vivo): about 2 fold | time of peak bronchoprotection post-dose (MCh response; in vivo): 6 h | time post dose at which most potent at inhibiting pilocarpine-induced salivation [2]: 6 h
